Where “and” joins values, the source holds several entries; their conditions need not be identical. Equal entries are not always repeated. Where two headings read alike, the source gives them in different places.
Legend:
SARS-CoV-2 [1] = assay: microbe, parasite or virus in culture; format: cell-based; conditions: for SARS-CoV-2 % infected cells: 10 µM after 1 h infection; for TOA: HeLa-ACE2, replicate wells n=1-3
SARS-CoV-2 [2] = format: cell-based
HeLa-ACE2 cells [3] = assay: Total cell count in the HeLa-ACE2 TOA assay; format: cell-based; conditions: Homo sapiens
Excerpt: Supplement 41467_2021_23328_MOESM3_ESM.xlsx, sheet "Table S1" | column: HeLa-ACE2 TOA cell count

HeLa-ACE2 cells [4] = assay: cells; conditions: Homo sapiens
Calu-3 cells [5] = assay: cells; conditions: Homo sapiens
COVID-19 [6] = conditions: shortened from 15; ref [7]; cited from earlier work
COVID-19 [7] = conditions: ref [9]; cited from earlier work
in vitro = conditions: human
Calu-3 cells [8] = assay: Uninfected Calu-3 48 h Cell-Titer Glo cytotoxicity counter screen

CCC(CC)COC(=O)[C@H](C)N[P@](=O)(OC[C@H]1O[C@@](C#N)(c2ccc3c(N)ncnn23)[C@H](O)[C@@H]1O)Oc1ccccc1 [Remdesivir]
SARS-CoV-2 % infected cells (SARS-CoV-2 [1]; 5:00:00): 0.7242% and 1.236% and 0.5657%
SARS-CoV-2 % infected cells (SARS-CoV-2 [1]; 6:00:00): 1.289% and 0.8606%
SARS-CoV-2 % infected cells (SARS-CoV-2 [1]; 7:00:00): 0.8435% and 0.9162%
SARS-CoV-2 % infected cells (SARS-CoV-2 [1]; 8:00:00): 1.114% and 1.68%
SARS-CoV-2 % infected cells (SARS-CoV-2 [1]; 10:00:00): 1.9707% and 2.635%
SARS-CoV-2 % infected cells (SARS-CoV-2 [1]; 11:00:00): 2.255% and 2.403%
SARS-CoV-2 % infected cells (SARS-CoV-2 [1]; 12:00:00): 4.554%
SARS-CoV-2 % infected cells (SARS-CoV-2 [1]; 24:00:00): 1.211% and 0.9586%
activity when treatment was initiated at 1 hpi (SARS-CoV-2 [1]; HeLa-ACE2, 10 µM): effectively blocked the infection
TOA (SARS-CoV-2 [1]; concentration log[M] -5.61909): -92.6138 and -80.8583 and -88.199 and -76.7514 and -93.5448 and -83.4805 and -80.3661 and -74.8437 and -99.8898
TOA (SARS-CoV-2 [1]; concentration log[M] -6.09621): -68.7737 and -49.7255 and -48.7992 and -40.2692 and -44.1304 and -40.198 and -47.0122 and -58.4412 and -51.4261
TOA (SARS-CoV-2 [1]; concentration log[M] -6.57334): -20.3161 and -18.1481 and -10.1709 and -1.508 and -0.9303 and -16.8539 and -5.25 and -7.77
TOA (SARS-CoV-2 [1]; concentration log[M] -7.05046): -7.493 and -17.8403 and -13.1433 and -19.1912 and -3.289 and -5.355 and 2.9336 and -2.419
TOA (SARS-CoV-2 [1]; concentration log[M] -7.52758): -5.952 and 2.422 and 1.456 and -1.724 and -2.397 and 2.2617 and 7.029 and -1.667 and -1.15
TOA (SARS-CoV-2 [1]; concentration log[M] -8.0047): 5.958 and 5.629 and 3.068 and -1.8321 and 3.442 and 6.226 and 7.961 and 4.025 and 11.376
TOA (SARS-CoV-2 [1]; concentration log[M] -8.48182): 4.28 and 10.7449 and 12.4349 and -4.585 and 4.364 and -1.184 and 4.823 and 5.851 and -1.616
TOA (SARS-CoV-2 [1]; concentration log[M] -8.95894): -2.286 and -0.1755 and 11.8345 and -1.884 and 3.08 and 1.621 and -5.04 and -0.06688 and -11.3351
Emax (SARS-CoV-2 [1]; Severe acute respiratory syndrome coronavirus 2, HeLa-ACE2, 10 h, curve plateau at infinite concentration, read-out: HeLa-ACE2 TOA CoV-2 Sinf Average): 102%
EC50 (SARS-CoV-2 [1]; Severe acute respiratory syndrome coronavirus 2, HeLa-ACE2, read-out: HeLa-ACE2 TOA CoV-2 EC50 GeoMean): 795 nM
EC50 (SARS-CoV-2 [1]; Severe acute respiratory syndrome coronavirus 2, HeLa-ACE2, fixed 10 hpi, geomean, read-out: CoV-2 TOA EC50): 770 nM
effect on viral replication in ALI-HBECs (SARS-CoV-2 [2]): inhibited viral replication
Emax (HeLa-ACE2 cells [3]; HeLa-ACE2, 10 h, curve plateau at infinite concentration, read-out: HeLa-ACE2 TOA cell count Sinf Average): 100%
EC50 (HeLa-ACE2 cells [3]; HeLa-ACE2, read-out: HeLa-ACE2 TOA cell count EC50 GeoMean): > 9610 nM
Emax (HeLa-ACE2 cells [4]; HeLa-ACE2, 24 h, read-out: HeLa-ACE2 cell count Sinf Average): 100%
EC50 (HeLa-ACE2 cells [4]; HeLa-ACE2, read-out: HeLa-ACE2 cell count EC50 GeoMean): > 9600 nM
EC50 (HeLa-ACE2 cells [4]; HeLa-ACE2, read-out: cell count in infection assay EC50, HeLa-ACE2, geomean, ^↑ = increasing dose-response curve): > 1200 nM
Emax (Calu-3 cells [5]; Calu-3, 48 h, read-out: Calu-3 cell count Sinf Average): 103%
EC50 (Calu-3 cells [5]; Calu-3, read-out: Calu-3 cell count EC50 GeoMean): 700 nM
EC50 (Calu-3 cells [5]; Calu-3, read-out: cell count EC50, Calu-3, geomean, ^↑ = increasing dose-response curve): 537 nM
median time to recovery (COVID-19 [6]): 11 days
mortality of hospitalized COVID-19 patients (COVID-19 [7]): failed to reduce mortality
CC50 (in vitro; Calu-3 Uninf. cells CC50 (µM), reconfirmed hits): > 30 µM
CC50 (in vitro; Calu-3 Uninf. cells CC50 (µM), value in brackets*: remdesivir control): > 30 µM
CC50 (in vitro; Calu-3 uninfected cytotoxicity CC50 GeoMean): > 29.9 µM
CC50 (in vitro; cytotoxicity CC50, uninfected Calu-3, geomean): > 30 µM
cytotox (Calu-3 cells [8]; Calu-3, concentration log[M] -5, replicate wells n=1-3): 10.3923 and -8.975 and 0.952 and 18.306 and 7.959 and -3.54 and 10.6309 and -10.2579 and 5.131
Calu-3 uninfected cytotoxicity Sinf Average (Calu-3 cells [8]; curve plateau at infinite concentration): -95%
